Measurements as given in patent US9221756B2, “Pyrrole derivatives” (priority 2011, dated 2015).

molecular target: pneumolysin (Streptococcus pneumoniae serotype 2, UniProt Q04IN8); experiment: Inhibition of the haemolytic activity of pneumolysin (sheep erythrocytes); format: cell-based; conditions: IC50, inhibition of pneumolysin-induced haemolysis of sheep erythrocytes; class symbols of Table 1
Sequence (Q04IN8 whole entry): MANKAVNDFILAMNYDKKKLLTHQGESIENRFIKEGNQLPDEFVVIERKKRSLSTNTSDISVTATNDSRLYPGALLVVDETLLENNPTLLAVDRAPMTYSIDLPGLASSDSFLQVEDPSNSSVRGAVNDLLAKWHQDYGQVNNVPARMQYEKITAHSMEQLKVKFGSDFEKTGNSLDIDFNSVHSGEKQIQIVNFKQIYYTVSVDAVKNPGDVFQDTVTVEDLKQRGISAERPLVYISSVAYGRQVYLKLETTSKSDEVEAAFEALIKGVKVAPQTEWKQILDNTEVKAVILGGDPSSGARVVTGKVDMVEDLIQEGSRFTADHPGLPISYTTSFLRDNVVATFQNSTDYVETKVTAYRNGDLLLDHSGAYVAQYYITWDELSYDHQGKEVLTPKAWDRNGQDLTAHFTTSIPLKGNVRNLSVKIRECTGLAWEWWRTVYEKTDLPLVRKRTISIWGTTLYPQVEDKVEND

Row | Structure (SMILES) | IC50
1 | CCOC(=O)c1c(O)c(O)c(-c2nn[nH]n2)n1-c1ccc(OC)cc1 [UL1-089, ethyl 3,4-dihydroxy-1-(4-methoxyphenyl)-5-(2H-tetrazol-5-yl)-1H-pyrrole-2-carboxylate] | < 10 µM
2 | CCOC(=O)c1c(OCc2ccccc2)c(OCc2ccccc2)c(-c2nn[nH]n2)n1-c1ccc(OC)cc1 [UL1-090, ethyl 3,4-bis(benzyloxy)-1-(4-methoxyphenyl)-5-(2H-tetrazol-5-yl)-1H-pyrrole-2-carboxylate] | < 10 µM
3 | COc1ccc(-n2c(C(C)=O)c(O)c(O)c2C(=O)N(C)C)cc1 [UL1-091, 5-acetyl-3,4-dihydroxy-1-(4-methoxyphenyl)-N,N-dimethyl-1H-pyrrole-2-carboxamide] | < 10 µM
4 | CCOC(=O)c1c(O)c(O)c(C(=O)N(C)C)n1-c1ccc(OCCOC)cc1 [UL1-093, ethyl 5-(dimethylcarbamoyl)-3,4-dihydroxy-1-(4-(2-methoxyethoxy)phenyl)-1H-pyrrole-2-carboxylate] | < 10 µM
5 | CCOC(=O)c1c(O)c(O)c(C(=O)N(C)C)n1-c1ccc(OCCOCCOCCOC)cc1 [UL1-095, ethyl 5-(dimethylcarbamoyl)-3,4-dihydroxy-1-(4-(2-(2-(2-methoxyethoxy)ethoxy)ethoxy)phenyl)-1H-pyrrole-2-carboxylate] | < 10 µM
6 | CCOC(=O)c1c(O)c(O)c(C(=O)N(C)C)n1-c1ccc(OCCOCCOCCOCCOC)cc1 [UL1-096, ethyl 1-(4-(2,5,8,11-tetraoxatridecan-13-yloxy)phenyl)-5-(dimethylcarbamoyl)-3,4-dihydroxy-1H-pyrrole-2-carboxylate] | < 10 µM
7 | CCOC(=O)c1c(O)c(O)c(C(=O)NC)n1-c1ccc(OC)cc1 [UL1-099, ethyl 3,4-dihydroxy-1-(4-methoxyphenyl)-5-(methylcarbamoyl)-1H-pyrrole-2-carboxylate] | < 10 µM
8 | CCOC(=O)c1c(O)c(O)c(C(=O)N(C)C)n1-c1ccc(O)cc1 [UL1-100, ethyl 5-(dimethylcarbamoyl)-3,4-dihydroxy-1-(4-hydroxyphenyl)-1H-pyrrole-2-carboxylate] | < 10 µM
9 | CCOC(=O)c1c(O)c(O)c(C(=O)N(C)C)n1-c1ccc(OP(=O)(O)O)cc1 [UL1-101, ethyl 5-(dimethylcarbamoyl)-3,4-dihydroxy-1-(4-(phosphonooxy)phenyl)-1H-pyrrole-2-carboxylate] | < 10 µM
10 | CCOC(=O)c1c(O)c(O)c(C(=O)N(C)C)n1-c1ccc(OCCCN2CCOCC2)cc1 [UL1-102, ethyl 5-(dimethylcarbamoyl)-3,4-dihydroxy-1-(4-(3-morpholinopropoxy)phenyl)-1H-pyrrole-2-carboxylate] | < 10 µM
11 | CCOC(=O)c1c(O)c(O)c(C(=O)N(C)C)n1-c1ccc(OCCCN2CCN(C)CC2)cc1 [UL1-103, ethyl 5-(dimethylcarbamoyl)-3,4-dihydroxy-1-(4-(3-(4-methylpiperazin-1-yl)propoxy)phenyl)-1H-pyrrole-2-carboxylate] | < 10 µM
12 | CCOC(=O)c1c(OC(=O)CCOC)c(OC(=O)CCOC)c(C(=O)N(C)C)n1-c1ccc(OC)cc1 [UL1-104, 2-(dimethylcarbamoyl)-5-(ethoxycarbonyl)-1-(4-methoxyphenyl)-1H-pyrrole-3,4-diyl bis(3-methoxypropanoate)] | < 10 µM
13 | CCOC(=O)c1c(O)c(O)c(C(=O)N(C)C)n1-c1ccc(OCCCP(=O)(OCC)OCC)cc1 [UL1-106, ethyl 1-(4-(3-(diethoxyphosphoryl)propoxy)phenyl)-5-(dimethylcarbamoyl)-3,4-dihydroxy-1H-pyrrole-2-carboxylate] | < 10 µM
14 | CCOC(=O)c1c(O)c(O)c(C(=O)N(C)C)n1-c1ccc(OCCCP(=O)(O)O)cc1 [UL1-107, (3-(4-(2-(dimethylcarbamoyl)-5-(ethoxycarbonyl)-3,4-dihydroxy-1H-pyrrol-1-yl)phenoxy)propyl)phosphonic acid] | < 10 µM
15 | CCOC(=O)c1c(OC(=O)C(C)(C)COCCOC)c(OC(=O)C(C)(C)COCCOC)c(C(=O)N(C)C)n1-c1ccc(OC)cc1 [UL1-108, 2-(dimethylcarbamoyl)-5-(ethoxycarbonyl)-1-(4-methoxyphenyl)-1H-pyrrole-3,4-diyl bis(3-(2-methoxyethoxy)-2,2-dimethylpropanoate)] | 10 to 20 µM
16 | CCOC(=O)c1c(O)c(O)c(C(=O)N(C)C)n1-c1ccc(OCCCS(C)(=O)=O)cc1 [UL1-110, ethyl 5-(dimethylcarbamoyl)-3,4-dihydroxy-1-(4-(3-(methylsulfonyl)propoxy)phenyl)-1H-pyrrole-2-carboxylate] | < 10 µM
17 | COc1ccc(-n2c(C(=O)OCC(C)(C)C)c(O)c(O)c2C(=O)N(C)C)cc1 [UL1-112, neopentyl 5-(dimethylcarbamoyl)-3,4-dihydroxy-1-(4-methoxyphenyl)-1H-pyrrole-2-carboxylate] | < 10 µM

Row | Structure (SMILES) | IC50
18 | COc1ccc(-n2c(C(=O)OC3C(C)CCCC3C)c(O)c(O)c2C(=O)N(C)C)cc1 (stereo not shown) [UL1-113, 2,6-dimethylcyclohexyl 5-(dimethylcarbamoyl)-3,4-dihydroxy-1-(4-methoxyphenyl)-1H-pyrrole-2-carboxylate] | < 10 µM
19 | COc1ccc(-n2c(C(=O)OC3CCCC3)c(O)c(O)c2C(=O)N(C)C)cc1 [UL1-116, cyclopentyl 5-(dimethylcarbamoyl)-3,4-dihydroxy-1-(4-methoxyphenyl)-1H-pyrrole-2-carboxylate] | < 10 µM
20 | CCOC(=O)c1c(OC(=O)C(C)(C)COCCOCCOCCOCCOCCOCCOCCOC)c(OC(=O)C(C)(C)COCCOCCOCCOCCOCCOCCOCCOC)c(C(=O)N(C)C)n1-c1ccc(OC)cc1 [UL1-119, 2-(dimethylcarbamoyl)-5-(ethoxycarbonyl)-1-(4-methoxyphenyl)-1H-pyrrole-3,4-diyl bis(25,25-dimethyl-2,5,8,11,14,17,20,23-octaoxahexacosan-26-oate)] | < 10 µM
21 | COCCOCCOCCOCCOCCOCCOCCOCC(C)(C)C(=O)Oc1c(OC(=O)C(C)(C)COCCOCCOCCOCCOCCOCCOCCOC)c(C(=O)N(C)C)n(-c2ccc(OC)cc2)c1C(=O)N(C)C [UL1-120, 2,5-bis(dimethylcarbamoyl)-1-(4-methoxyphenyl)-1H-pyrrole-3,4-diyl bis(25,25-dimethyl-2,5,8,11,14,17,20,23-octaoxahexacosan-26-oate)] | 10 to 20 µM
22 | COc1ccc(-n2c(C(=O)N(C)C)c(OC(=O)C(C)(C)COCCOCCOP(=O)(O)O)c(OC(=O)C(C)(C)COCCOCCOP(=O)(O)O)c2C(=O)N(C)C)cc1 [UL1-121, 2,5-bis(dimethylcarbamoyl)-1-(4-methoxyphenyl)-1H-pyrrole-3,4-diyl bis(2,2-dimethyl-3-(2-(2-(phosphonooxy)ethoxy)ethoxy)propanoate)] | 10 to 20 µM
23 | COc1ccc(-n2c(C(=O)OC(C)C)c(OC(=O)C(C)(C)COCCOCCOP(=O)(O)O)c(OC(=O)C(C)(C)COCCOCCOP(=O)(O)O)c2C(=O)N(C)C)cc1 [UL1-122, 2-(dimethylcarbamoyl)-5-(isopropoxycarbonyl)-1-(4-methoxyphenyl)-1H-pyrrole-3,4-diyl bis(2,2-dimethyl-3-(2-(2-(phosphonooxy)ethoxy)ethoxy)propanoate)] | < 10 µM
24 | COc1ccc(-n2c(C(=O)N(C)C)c(OC(=O)C3CCNCC3)c(OC(=O)C3CCNCC3)c2C(=O)N(C)C)cc1 [UL1-123, 2,5-bis(dimethylcarbamoyl)-1-(4-methoxyphenyl)-1H-pyrrole-3,4-diyl bis(piperidine-4-carboxylate)] | < 10 µM
25 | COc1ccc(-n2c(C(=O)N(C)C)c(OC(=O)c3ccc(COP(=O)(O)O)cc3)c(OC(=O)c3ccc(COP(=O)(O)O)cc3)c2C(=O)N(C)C)cc1 [UL1-124, 2,5-bis(dimethylcarbamoyl)-1-(4-methoxyphenyl)-1H-pyrrole-3,4-diyl bis(4-((phosphonooxy)methyl)benzoate)] | < 10 µM
26 | COc1ccc(-n2c(C(=O)N(C)C)c(O)c(O)c2P(C)(C)=O)cc1 [UL1-125, 5-(dimethylphosphoryl)-3,4-dihydroxy-1-(4-methoxyphenyl)-N,N-dimethyl-1H-pyrrole-2-carboxamide] | < 10 µM
27 | COc1ccc(-n2c(C(=O)N(C)C)c(OC(=O)[C@H]3CC[C@H](COP(=O)(O)O)CC3)c(OC(=O)[C@H]3CC[C@H](COP(=O)(O)O)CC3)c2C(=O)N(C)C)cc1 [UL1-126, (1R,1′R,4R,4′R)-2,5-bis(dimethylcarbamoyl)-1-(4-methoxyphenyl)-1H-pyrrole-3,4-diyl bis(4-((phosphonooxy)methyl)cyclohexanecarboxylate)] | < 10 µM
28 | CCOC(=O)c1c(O)c(O)c(C(=O)OCC)n1-c1ccccc1 [UL2-002, diethyl 3,4-dihydroxy-1-phenyl-1H-pyrrole-2,5-dicarboxylate] | < 10 µM
29 | CCOC(=O)c1c(O)c(O)c(C(=O)OCC)n1-c1ccc(F)cc1 [UL2-003, diethyl 1-(4-fluorophenyl)-3,4-dihydroxy-1H-pyrrole-2,5-dicarboxylate] | 10 to 20 µM
30 | CCOC(=O)c1c(O)c(O)c(C(=O)OCC)n1-c1cccc(OC)c1 [UL2-004, diethyl 3,4-dihydroxy-1-(3-methoxyphenyl)-1H-pyrrole-2,5-dicarboxylate] | 10 to 20 µM
31 | CCOC(=O)c1c(O)c(O)c(C(=O)OCC)n1-c1ccc(OC(F)(F)F)cc1 [UL2-005, diethyl 3,4-dihydroxy-1-(4-(trifluoromethoxy)phenyl)-1H-pyrrole-2,5-dicarboxylate] | < 10 µM
32 | CCOC(=O)c1c(O)c(O)c(C(=O)OCC)n1-c1ccc(C(C)C)cc1 [UL2-006, diethyl 3,4-dihydroxy-1-(4-isopropylphenyl)-1H-pyrrole-2,5-dicarboxylate] | < 10 µM
33 | CCOC(=O)c1c(O)c(O)c(C(=O)OCC)n1-c1ccc(Oc2ccccc2)cc1 [UL2-007, diethyl 3,4-dihydroxy-1-(4-phenoxyphenyl)-1H-pyrrole-2,5-dicarboxylate] | < 10 µM

same assay, conditions: IC50, inhibition of pneumolysin-induced haemolysis of sheep erythrocytes; specific values

Row | Structure (SMILES) | IC50
34 | CCOC(=O)c1c(O)c(O)c(-c2nn[nH]n2)n1-c1ccc(OC)cc1 [UL1-089, ethyl 3,4-dihydroxy-1-(4-methoxyphenyl)-5-(2H-tetrazol-5-yl)-1H-pyrrole-2-carboxylate] | 0.4 µM
35 | CCOC(=O)c1c(O)c(O)c(C(=O)N(C)C)n1-c1ccc(OCCCP(=O)(OCC)OCC)cc1 [UL1-106, ethyl 1-(4-(3-(diethoxyphosphoryl)propoxy)phenyl)-5-(dimethylcarbamoyl)-3,4-dihydroxy-1H-pyrrole-2-carboxylate] | 0.17 µM
36 | COc1ccc(-n2c(C(=O)OC3CCCC3)c(O)c(O)c2C(=O)N(C)C)cc1 [UL1-116, cyclopentyl 5-(dimethylcarbamoyl)-3,4-dihydroxy-1-(4-methoxyphenyl)-1H-pyrrole-2-carboxylate] | 0.18 µM

same assay, conditions: inhibition of pneumolysin-induced haemolysis of sheep erythrocytes; class symbols of Table 1; read-out: IC50

Row | Structure (SMILES) | IC50
37 | CCOC(=O)c1c(O)c(OP(=O)(OCC)OCC)c(C(=O)N(C)C)n1-c1ccc(OC)cc1 [UL1-097, ethyl 4-((diethoxyphosphoryl)oxy)-5-(dimethylcarbamoyl)-3-hydroxy-1-(4-methoxyphenyl)-1H-pyrrole-2-carboxylate] | > 60 µM
